Reference: patent US20160235752A1, “COMPOSITIONS, METHODS OF USE, AND METHODS OF TREATMENT” (THE UNIVERSITY OF NEW ORLEANS, priority 2013, published 2016)
≈ marks a conversion by molar mass, not a printed value.

Legend:
[1] = test system: Candida albicans (ATCC no. 10231); experiment: MIC determination by broth microdilution (NCCLS), visual scoring; assay type: cell-based
How it was run: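 NCCLS broth microdilution in RPMI 1640 with 10 mM HEPES, final compound 0.5–128 μg/mL, DMSO ≤1%. Inoculum from 0.5 McFarland stock diluted 1:50; incubated 35 °C for 48–72 h. MIC scored visually as lowest concentration giving ~80% growth reduction versus drug-free wells.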

[2] = test system: Candida glabrata (ATCC no. 48435); experiment: as above; assay type: cell-based
Description: The antifungal activity of the 2,4,6-pyrimidinetrione analogs shown in Schemes 2-6 were evaluated in vitro using Candida albicans (ATCC no. 10231) and Candida glabrata (ATCC no 48435). All assays were done in accordance with NCCLS reference documents^29. The results of these screenings are summarized in Tables 1-9 as the minimal inhibitory concentrations that inhibited more than 80% fungal growth as compared to the positive controls in 1% DMSO and RPMI media. All MIC screens were done using a visual scoring method as opposed to spectroscopic methods of analysis, due to the physical properties of many of the compounds altering their absorbance spectra relative to the positive, negative and drug controls.
None of the compounds tested over the course of these studies were soluble in water and DMSO was used to dilute each compound tested. Master stock concentrations of all tested compounds were prepared to ensure that the maximum final concentration of DMSO was 1% or less. Subsequent 2-fold serial dilutions were made using sterile water to a final concentration of 1280-5.00 μg/ml. A final 10-fold dilution of each drug was made by aliquotting 0.1 mL of each drug dilution into 0.9 mL of fungal suspension in RPMI 1640 media with 10 mM HEPES buffer added (see methodology below), giving final concentrations tested in the range of 128-0.5 μg/ml.
Antifungal susceptibility studies and minimal inhibitory concentrations (MIC) values for Candida albicans (ATCC no. 10231) and Candida glabrata (ATCC no. 48435) were determined by the broth microdilution technique in accordance with NCCLS reference documents. Microdilution panels ranged from 0.5 to 128 μg/mL. All organisms were subcultured on Sabouraud agar and passaged to ensure purity and viability. The initiating inocula were prepared by picking 5-7 isolated colonies ˜1 mm in diameter from freshly prepared YM agar plates. Colonies were resuspended in sterile water, vortexed and the cell density was adjusted spectrophotometrically to the transmittance of a 0.5 McFarland standard at a wavelength of 530 nm, to yield a stock suspension of 1×10^6-5×10^6 cells/mL. The stock was allowed to hydrate for 30 minutes at room temperature. A working suspension was then made by diluting the stock 1:50 with RPMI 1640 media containing HEPES buffer. The working suspension was used for all assays. The plates were incubated at 35° C. for 48-72 hours in a humid atmosphere. Growth was scored visually. MIC values are defined as the lowest concentration of agent that prevents any discernible growth, ˜80% reduction of growth, as compared with drug-free control wells. All assays were run in parallel using either fluconazole or amphotericin B at the NCCLS recommended concentrations^29 as a drug control (Sigma-Aldrich).

[3] = Table 7, Phenylhydrazones of 5-Acylpyrimidinetriones
[4] = Table 5, Schiff Bases of 5-acylpyrimidinetriones
[5] = Table 8, N-Acylhydrazones of 5-Acylpyrimidinetriones
[6] = Table 2, 5-Arylidene-2,4,6-pyrimidinetriones

CN1C(=O)C(C(=NNc2ccc([N+](=O)[O-])cc2[N+](=O)[O-])c2ccc(O)cc2)C(=O)N(C)C1=O [BA34]
MIC80 C. albicans [1, 3]: — (none of the 5-acyl-2,4,6-pyrimidinetriones, 5-alkylated pyrimidinetriones or the 5,5-dialkylated pyrimidinetriones showed antifungal activity through 125 μg/mL)
MIC80 C. glabrata [2, 3]: — (none of the 5-acyl-2,4,6-pyrimidinetriones, 5-alkylated pyrimidinetriones or the 5,5-dialkylated pyrimidinetriones showed antifungal activity through 125 μg/mL)

COc1ccc(C(=NCCCCCC(=O)O)C2C(=O)NC(=O)NC2=O)cc1 [BA35]
MIC80 C. albicans [1, 4]: — (none of the 5-acyl-2,4,6-pyrimidinetriones, 5-alkylated pyrimidinetriones or the 5,5-dialkylated pyrimidinetriones showed antifungal activity through 125 μg/mL)
MIC80 C. glabrata [2, 4]: — (none of the 5-acyl-2,4,6-pyrimidinetriones, 5-alkylated pyrimidinetriones or the 5,5-dialkylated pyrimidinetriones showed antifungal activity through 125 μg/mL)

COC(=O)NN=C(c1ccc(O)cc1)C1C(=O)N(C)C(=O)N(C)C1=O [BA36]
MIC80 C. albicans [1, 5]: — (none of the 5-acyl-2,4,6-pyrimidinetriones, 5-alkylated pyrimidinetriones or the 5,5-dialkylated pyrimidinetriones showed antifungal activity through 125 μg/mL)
MIC80 C. glabrata [2, 5]: — (none of the 5-acyl-2,4,6-pyrimidinetriones, 5-alkylated pyrimidinetriones or the 5,5-dialkylated pyrimidinetriones showed antifungal activity through 125 μg/mL)

COC(=O)NN=C(c1ccc([N+](=O)[O-])cc1)C1C(=O)NC(=O)NC1=O [BA37]
MIC80 C. albicans [1, 5]: — (none of the 5-acyl-2,4,6-pyrimidinetriones, 5-alkylated pyrimidinetriones or the 5,5-dialkylated pyrimidinetriones showed antifungal activity through 125 μg/mL)
MIC80 C. glabrata [2, 5]: — (none of the 5-acyl-2,4,6-pyrimidinetriones, 5-alkylated pyrimidinetriones or the 5,5-dialkylated pyrimidinetriones showed antifungal activity through 125 μg/mL)

O=C1NC(=O)C(C(=NNc2ccc(C(=O)O)cc2)C2C(=O)NC(=O)NC2=O)C(=O)N1 [BA38]
MIC80 C. albicans [1, 3]: — (none of the 5-acyl-2,4,6-pyrimidinetriones, 5-alkylated pyrimidinetriones or the 5,5-dialkylated pyrimidinetriones showed antifungal activity through 125 μg/mL)
MIC80 C. glabrata [2, 3]: 125 µg/mL (≈ 300 µM)

O=C1NC(=O)C(=Cc2ccccc2)C(=O)N1 [BA39]
MIC80 C. albicans [1, 6]: — (none of the 5-acyl-2,4,6-pyrimidinetriones, 5-alkylated pyrimidinetriones or the 5,5-dialkylated pyrimidinetriones showed antifungal activity through 125 μg/mL)
MIC80 C. glabrata [2, 6]: — (none of the 5-acyl-2,4,6-pyrimidinetriones, 5-alkylated pyrimidinetriones or the 5,5-dialkylated pyrimidinetriones showed antifungal activity through 125 μg/mL)

O=C1NC(=O)C(=Cc2ccc3ccccc3c2)C(=O)N1 [BA40]
MIC80 C. albicans [1, 6]: 125 µg/mL (≈ 469 µM)
MIC80 C. glabrata [2, 6]: — (none of the 5-acyl-2,4,6-pyrimidinetriones, 5-alkylated pyrimidinetriones or the 5,5-dialkylated pyrimidinetriones showed antifungal activity through 125 μg/mL)

O=C1NC(=O)C(=Cc2cccc3ccccc23)C(=O)N1 [BA41]
MIC80 C. albicans [1, 6]: 125 µg/mL (≈ 469 µM)
MIC80 C. glabrata [2, 6]: — (none of the 5-acyl-2,4,6-pyrimidinetriones, 5-alkylated pyrimidinetriones or the 5,5-dialkylated pyrimidinetriones showed antifungal activity through 125 μg/mL)

CN1C(=O)C(=CC=Cc2ccccc2)C(=O)N(C)C1=O [BA43]
MIC80 C. albicans [1, 6]: 62 µg/mL (≈ 229 µM)
MIC80 C. glabrata [2, 6]: 125 µg/mL (≈ 462 µM)

O=C1NC(=O)C(=Cc2ccc(O)cc2)C(=O)N1 [BA44]
MIC80 C. albicans [1, 6]: — (none of the 5-acyl-2,4,6-pyrimidinetriones, 5-alkylated pyrimidinetriones or the 5,5-dialkylated pyrimidinetriones showed antifungal activity through 125 μg/mL)
MIC80 C. glabrata [2, 6]: — (none of the 5-acyl-2,4,6-pyrimidinetriones, 5-alkylated pyrimidinetriones or the 5,5-dialkylated pyrimidinetriones showed antifungal activity through 125 μg/mL)

CN1C(=O)C(=Cc2ccc(O)cc2)C(=O)N(C)C1=O [BA45]
MIC80 C. albicans [1, 6]: — (none of the 5-acyl-2,4,6-pyrimidinetriones, 5-alkylated pyrimidinetriones or the 5,5-dialkylated pyrimidinetriones showed antifungal activity through 125 μg/mL)
MIC80 C. glabrata [2, 6]: — (none of the 5-acyl-2,4,6-pyrimidinetriones, 5-alkylated pyrimidinetriones or the 5,5-dialkylated pyrimidinetriones showed antifungal activity through 125 μg/mL)

O=C1NC(=O)N(c2ccccc2)C(=O)C1=Cc1ccc(O)cc1 [BA46]
MIC80 C. albicans [1, 6]: — (none of the 5-acyl-2,4,6-pyrimidinetriones, 5-alkylated pyrimidinetriones or the 5,5-dialkylated pyrimidinetriones showed antifungal activity through 125 μg/mL)
MIC80 C. glabrata [2, 6]: — (none of the 5-acyl-2,4,6-pyrimidinetriones, 5-alkylated pyrimidinetriones or the 5,5-dialkylated pyrimidinetriones showed antifungal activity through 125 μg/mL)

O=C1NC(=O)C(=Cc2ccccc2O)C(=O)N1 [BA47, 5-(2-hydroxybenzylidene)pyrimidine-2,4,6-trione]
MIC80 ([1]; Candida albicans, ATCC10231, read-out: MIC80 C. albicans): > 125 µg/mL
MIC80 ([2]; Nakaseomyces glabratus, ATCC48435, read-out: MIC80 C. glabrata): 8 µg/mL (≈ 34.5 µM)

CN1C(=O)C(=Cc2ccc(O)cc2O)C(=O)N(C)C1=O [BA48]
MIC80 C. albicans [1, 6]: — (none of the 5-acyl-2,4,6-pyrimidinetriones, 5-alkylated pyrimidinetriones or the 5,5-dialkylated pyrimidinetriones showed antifungal activity through 125 μg/mL)
MIC80 C. glabrata [2, 6]: 2 µg/mL (≈ 7.24 µM)

COc1ccc(C=C2C(=O)N(C)C(=O)N(C)C2=O)cc1 [BA50]
MIC80 C. albicans [1, 6]: — (none of the 5-acyl-2,4,6-pyrimidinetriones, 5-alkylated pyrimidinetriones or the 5,5-dialkylated pyrimidinetriones showed antifungal activity through 125 μg/mL)
MIC80 C. glabrata [2, 6]: — (none of the 5-acyl-2,4,6-pyrimidinetriones, 5-alkylated pyrimidinetriones or the 5,5-dialkylated pyrimidinetriones showed antifungal activity through 125 μg/mL)

COc1ccc(C=C2C(=O)N(C)C(=O)N(C)C2=O)c(OC)c1OC [BA51]
MIC80 C. albicans [1, 6]: — (none of the 5-acyl-2,4,6-pyrimidinetriones, 5-alkylated pyrimidinetriones or the 5,5-dialkylated pyrimidinetriones showed antifungal activity through 125 μg/mL)
MIC80 C. glabrata [2, 6]: — (none of the 5-acyl-2,4,6-pyrimidinetriones, 5-alkylated pyrimidinetriones or the 5,5-dialkylated pyrimidinetriones showed antifungal activity through 125 μg/mL)

COc1cc(OC)c(C=C2C(=O)N(C)C(=O)N(C)C2=O)c(OC)c1 [BA52]
MIC80 C. albicans [1, 6]: — (none of the 5-acyl-2,4,6-pyrimidinetriones, 5-alkylated pyrimidinetriones or the 5,5-dialkylated pyrimidinetriones showed antifungal activity through 125 μg/mL)
MIC80 C. glabrata [2, 6]: — (none of the 5-acyl-2,4,6-pyrimidinetriones, 5-alkylated pyrimidinetriones or the 5,5-dialkylated pyrimidinetriones showed antifungal activity through 125 μg/mL)

CN(C)c1ccc(C=C2C(=O)NC(=O)NC2=O)cc1 [BA53]
MIC80 C. albicans [1, 6]: 62 µg/mL (≈ 239 µM)
MIC80 C. glabrata [2, 6]: — (none of the 5-acyl-2,4,6-pyrimidinetriones, 5-alkylated pyrimidinetriones or the 5,5-dialkylated pyrimidinetriones showed antifungal activity through 125 μg/mL)

CN1C(=O)C(=Cc2ccc(N(C)C)cc2)C(=O)N(C)C1=O [BA54]
MIC80 C. albicans [1, 6]: — (none of the 5-acyl-2,4,6-pyrimidinetriones, 5-alkylated pyrimidinetriones or the 5,5-dialkylated pyrimidinetriones showed antifungal activity through 125 μg/mL)
MIC80 C. glabrata [2, 6]: — (none of the 5-acyl-2,4,6-pyrimidinetriones, 5-alkylated pyrimidinetriones or the 5,5-dialkylated pyrimidinetriones showed antifungal activity through 125 μg/mL)

O=C1NC(=O)C(=Cc2ccoc2)C(=O)N1 [BA55]
MIC80 C. albicans [1, 6]: — (none of the 5-acyl-2,4,6-pyrimidinetriones, 5-alkylated pyrimidinetriones or the 5,5-dialkylated pyrimidinetriones showed antifungal activity through 125 μg/mL)
MIC80 C. glabrata [2, 6]: — (none of the 5-acyl-2,4,6-pyrimidinetriones, 5-alkylated pyrimidinetriones or the 5,5-dialkylated pyrimidinetriones showed antifungal activity through 125 μg/mL)

O=C1NC(=O)C(=Cc2ccco2)C(=O)N1 [BA56]
MIC80 C. albicans [1, 6]: — (none of the 5-acyl-2,4,6-pyrimidinetriones, 5-alkylated pyrimidinetriones or the 5,5-dialkylated pyrimidinetriones showed antifungal activity through 125 μg/mL)
MIC80 C. glabrata [2, 6]: — (none of the 5-acyl-2,4,6-pyrimidinetriones, 5-alkylated pyrimidinetriones or the 5,5-dialkylated pyrimidinetriones showed antifungal activity through 125 μg/mL)
